Experimental data reported in PubChem BioAssay (NCI).
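A five-concentration, 48-hour dose response in 96-well plates underlies each endpoint, interpolated linearly between surrounding concentrations. TGI is the concentration that stops growth completely.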

Tests used:
Test in all cases: inhibition of tumour cell growth, NCI panel, 48 h
COLO 205 colon = tested on: COLO 205 colon
SW-620 colon = tested on: SW-620 colon
SK-MEL-2 melanoma = tested on: SK-MEL-2 melanoma
SNB-78 CNS = tested on: SNB-78 CNS
RPMI-8226 leukemia = tested on: RPMI-8226 leukemia
SF-268 CNS = tested on: SF-268 CNS
A549 NSCLC = tested on: A549 NSCLC
K-562 leukemia = tested on: K-562 leukemia
U251 CNS = tested on: U251 CNS
NCI-H460 lung = tested on: NCI-H460 lung
OVCAR-4 ovarian = tested on: OVCAR-4 ovarian
A498 renal = tested on: A498 renal
MOLT-4 leukemia = tested on: MOLT-4 leukemia
OVCAR-5 ovarian = tested on: OVCAR-5 ovarian
HOP-18 NSCLC = tested on: HOP-18 NSCLC
IGROV1 ovarian = tested on: IGROV1 ovarian
KM20L2 colon = tested on: KM20L2 colon
EKVX NSCLC = tested on: EKVX NSCLC
NCI-H23 lung = tested on: NCI-H23 lung
DMS 114 small cell lung = tested on: DMS 114 small cell lung
SNB-75 CNS = tested on: SNB-75 CNS
LXFL 529 NSCLC = tested on: LXFL 529 NSCLC
NCI-H522 lung = tested on: NCI-H522 lung
M14 melanoma = tested on: M14 melanoma
HT29 colon = tested on: HT29 colon
HOP-62 NSCLC = tested on: HOP-62 NSCLC
ACHN renal = tested on: ACHN renal
KM12 colon = tested on: KM12 colon
OVCAR-8 ovarian = tested on: OVCAR-8 ovarian
CCRF-CEM leukemia = tested on: CCRF-CEM leukemia
M19-MEL melanoma = tested on: M19-MEL melanoma
DLD-1 colon = tested on: DLD-1 colon
HCC-2998 colon = tested on: HCC-2998 colon
UACC-62 melanoma = tested on: UACC-62 melanoma
SK-OV-3 ovarian = tested on: SK-OV-3 ovarian
OVCAR-3 ovarian = tested on: OVCAR-3 ovarian
UO-31 renal = tested on: UO-31 renal
XF 498 CNS = tested on: XF 498 CNS
CAKI-1 renal = tested on: CAKI-1 renal
SK-MEL-5 melanoma = tested on: SK-MEL-5 melanoma
786-0 renal = tested on: 786-0 renal
HCT-15 colon = tested on: HCT-15 colon
SF-539 CNS = tested on: SF-539 CNS
HCT-116 colon = tested on: HCT-116 colon
UACC-257 melanoma = tested on: UACC-257 melanoma
SK-MEL-28 melanoma = tested on: SK-MEL-28 melanoma
SF-295 CNS = tested on: SF-295 CNS
MALME-3M melanoma = tested on: MALME-3M melanoma
TK-10 renal = tested on: TK-10 renal
SNB-19 CNS = tested on: SNB-19 CNS
LOX IMVI melanoma = tested on: LOX IMVI melanoma
HL-60(TB) leukemia = tested on: HL-60(TB) leukemia
MDA-N = tested on: MDA-N
HOP-92 NSCLC = tested on: HOP-92 NSCLC
MCF7 breast = tested on: MCF7 breast
T-47D breast = tested on: T-47D breast
NCI-H226 lung = tested on: NCI-H226 lung
MDA-MB-231 breast = tested on: MDA-MB-231 breast
RXF 393 renal = tested on: RXF 393 renal
PC-3 prostate = tested on: PC-3 prostate
SN12C renal = tested on: SN12C renal
BT-549 breast = tested on: BT-549 breast
HS 578T breast = tested on: HS 578T breast
MDA-MB-435 = tested on: MDA-MB-435
DU-145 prostate = tested on: DU-145 prostate
NCI/ADR-RES ovarian = tested on: NCI/ADR-RES ovarian
SR leukemia = tested on: SR leukemia

In the case of `COc1ccc2c(c1)CC1NC2Cc2ccccc21` (centres undefined), the TGI (COLO 205 colon) is reported as over 100 µM, the TGI (SW-620 colon) is reported as over 100 µM and the TGI (SK-MEL-2 melanoma) is reported as over 100 µM. The TGI (SNB-78 CNS) was over 100 µM, the TGI (RPMI-8226 leukemia) was over 100 µM and the TGI (SF-268 CNS) was over 100 µM. The TGI (A549 NSCLC) was over 100 µM, the TGI (K-562 leukemia) was over 100 µM and the TGI (U251 CNS) was over 100 µM. For the same compound, the TGI (NCI-H460 lung) was over 100 µM, the TGI (OVCAR-4 ovarian) was over 100 µM and the TGI (A498 renal) was over 100 µM. The TGI (MOLT-4 leukemia) was over 100 µM, the TGI (OVCAR-5 ovarian) was over 100 µM and the TGI (HOP-18 NSCLC) was over 100 µM. It also gave a TGI (IGROV1 ovarian) of over 100 µM, a TGI (KM20L2 colon) of over 100 µM and a TGI (EKVX NSCLC) of over 100 µM. For the same compound, the TGI (NCI-H23 lung) was over 100 µM, the TGI (DMS 114 small cell lung) was over 100 µM and the TGI (SNB-75 CNS) was over 100 µM. It also gave a TGI (LXFL 529 NSCLC) of over 100 µM, a TGI (NCI-H522 lung) of over 100 µM and a TGI (M14 melanoma) of over 100 µM. The TGI (HT29 colon) was over 100 µM, the TGI (HOP-62 NSCLC) was over 100 µM and the TGI (ACHN renal) was over 100 µM. The TGI (KM12 colon) was over 100 µM, the TGI (OVCAR-8 ovarian) was over 100 µM and the TGI (CCRF-CEM leukemia) was over 100 µM. For the same compound, the TGI (M19-MEL melanoma) was over 100 µM, the TGI (DLD-1 colon) was over 100 µM and the TGI (HCC-2998 colon) was over 100 µM. For the same compound, the TGI (UACC-62 melanoma) was over 100 µM, the TGI (SK-OV-3 ovarian) was over 100 µM and the TGI (OVCAR-3 ovarian) was over 100 µM. The TGI (UO-31 renal) was over 100 µM, the TGI (XF 498 CNS) was over 100 µM and the TGI (CAKI-1 renal) was over 100 µM. It also gave a TGI (SK-MEL-5 melanoma) of over 100 µM, a TGI (786-0 renal) of over 100 µM and a TGI (HCT-15 colon) of over 100 µM. It also gave a TGI (SF-539 CNS) of over 100 µM, a TGI (HCT-116 colon) of over 100 µM and a TGI (UACC-257 melanoma) of over 100 µM. For the same compound, the TGI (SK-MEL-28 melanoma) was over 100 µM, the TGI (SF-295 CNS) was over 100 µM and the TGI (MALME-3M melanoma) was over 100 µM. For the same compound, the TGI (TK-10 renal) was over 100 µM.

For `c1ccc2c(c1)n1c(N3CCOCC3)[n+]3ccccc3c1c1c3cccc[n+]3c(N3CCOCC3)n21`, the TGI (SNB-19 CNS) was over 100 µM, the TGI (COLO 205 colon) was over 100 µM and the TGI (SW-620 colon) was over 100 µM. For the same compound, the TGI (SK-MEL-2 melanoma) was over 100 µM, the TGI (LOX IMVI melanoma) was over 100 µM and the TGI (RPMI-8226 leukemia) was over 100 µM. It also gave a TGI (SF-268 CNS) of 68.2 µM, a TGI (HL-60(TB) leukemia) of over 100 µM and a TGI (MDA-N) of over 100 µM. The TGI (HOP-92 NSCLC) was over 100 µM, the TGI (A549 NSCLC) was over 100 µM and the TGI (K-562 leukemia) was over 100 µM. For the same compound, the TGI (U251 CNS) was over 100 µM, the TGI (MCF7 breast) was over 100 µM and the TGI (NCI-H460 lung) was over 100 µM. The TGI (OVCAR-4 ovarian) was over 100 µM, the TGI (T-47D breast) was over 100 µM and the TGI (A498 renal) was over 100 µM. It also gave a TGI (MOLT-4 leukemia) of over 100 µM, a TGI (OVCAR-5 ovarian) of over 100 µM and a TGI (IGROV1 ovarian) of over 100 µM. For the same compound, the TGI (EKVX NSCLC) was over 100 µM, the TGI (NCI-H23 lung) was over 100 µM and the TGI (SNB-75 CNS) was over 100 µM. For the same compound, the TGI (NCI-H522 lung) was over 100 µM, the TGI (M14 melanoma) was over 100 µM and the TGI (ACHN renal) was over 100 µM. It also gave a TGI (KM12 colon) of over 100 µM, a TGI (OVCAR-8 ovarian) of over 100 µM and a TGI (CCRF-CEM leukemia) of over 100 µM. The TGI (NCI-H226 lung) was over 100 µM, the TGI (MDA-MB-231 breast) was over 100 µM and the TGI (HCC-2998 colon) was over 100 µM. For the same compound, the TGI (UACC-62 melanoma) was over 100 µM, the TGI (RXF 393 renal) was over 100 µM and the TGI (OVCAR-3 ovarian) was over 100 µM. For the same compound, the TGI (PC-3 prostate) was over 100 µM, the TGI (SN12C renal) was over 100 µM and the TGI (CAKI-1 renal) was over 100 µM. It also gave a TGI (BT-549 breast) of over 100 µM, a TGI (HS 578T breast) of over 100 µM and a TGI (MDA-MB-435) of over 100 µM. For the same compound, the TGI (SK-MEL-5 melanoma) was over 100 µM, the TGI (786-0 renal) was over 100 µM and the TGI (DU-145 prostate) was over 100 µM. For the same compound, the TGI (HCT-15 colon) was over 100 µM, the TGI (SF-539 CNS) was over 100 µM and the TGI (HCT-116 colon) was over 100 µM. For the same compound, the TGI (UACC-257 melanoma) was over 100 µM, the TGI (NCI/ADR-RES ovarian) was over 100 µM and the TGI (SK-MEL-28 melanoma) was over 100 µM. It also gave a TGI (SF-295 CNS) of over 100 µM, a TGI (MALME-3M melanoma) of over 100 µM and a TGI (SR leukemia) of over 100 µM. The TGI (TK-10 renal) was over 100 µM.
